In this assay the target is methionyl-tRNA synthetase (Trypanosoma brucei brucei). Briefly: T. brucei MetRS inhibitors, orthogonal readout, late-stage follow-up, orthogonal assay for T. brucei MetRS inhibitor project, biochemical, fluorescence polarization, dose response, round 2 (AID 743299). Particulars: recombinant T. brucei MetRS. On the technique in general: Polarisation of emitted light reports the rotation of a fluorescent probe.

From PubChem BioAssay AID743299 (The Scripps Research Institute Molecular Screening Center, 2014) come the findings set out here.

The IC50 is the concentration needed to halve the response being measured. Regarding `CCN(CC)C(=O)C(=O)c1cn(CC(=O)Nc2cccc(C(F)(F)F)c2)c2ccccc12`, the IC50 was 181 nM.
